# Assay results: PubChem BioAssay (NCI)
#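 Five compound concentrations were applied to cells in 96-well plates for 48 hours; endpoints were derived by simple linear interpolation of the resulting dose-response curve. The concentration for full growth arrest is given as TGI.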
# How the values were obtained:
# Experiment in all cases: DTP human tumour cell line panel, 48 h
# IGROV1 ovarian = system: IGROV1 ovarian
# KM12 colon = system: KM12 colon
# OVCAR-3 ovarian = system: OVCAR-3 ovarian
# HCT-15 colon = system: HCT-15 colon
# MCF7 breast = system: MCF7 breast
# BT-549 breast = system: BT-549 breast
# K-562 leukemia = system: K-562 leukemia
# OVCAR-5 ovarian = system: OVCAR-5 ovarian
# EKVX NSCLC = system: EKVX NSCLC
# A549 NSCLC = system: A549 NSCLC
# COLO 205 colon = system: COLO 205 colon
# SF-539 CNS = system: SF-539 CNS
# M14 melanoma = system: M14 melanoma
# SF-295 CNS = system: SF-295 CNS
# MALME-3M melanoma = system: MALME-3M melanoma
# OVCAR-8 ovarian = system: OVCAR-8 ovarian
# HCC-2998 colon = system: HCC-2998 colon
# ACHN renal = system: ACHN renal
# UO-31 renal = system: UO-31 renal
# CAKI-1 renal = system: CAKI-1 renal
# TK-10 renal = system: TK-10 renal
# MDA-N = system: MDA-N
# SK-MEL-5 melanoma = system: SK-MEL-5 melanoma
# HS 578T breast = system: HS 578T breast
# SR leukemia = system: SR leukemia
# MOLT-4 leukemia = system: MOLT-4 leukemia
# UACC-62 melanoma = system: UACC-62 melanoma
# HOP-62 NSCLC = system: HOP-62 NSCLC
# PC-3 prostate = system: PC-3 prostate
# U251 CNS = system: U251 CNS
# SNB-75 CNS = system: SNB-75 CNS
# MDA-MB-435 = system: MDA-MB-435
# NCI-H522 lung = system: NCI-H522 lung
# SK-OV-3 ovarian = system: SK-OV-3 ovarian
# SN12C renal = system: SN12C renal
# 786-0 renal = system: 786-0 renal
# NCI/ADR-RES ovarian = system: NCI/ADR-RES ovarian
# NCI-H460 lung = system: NCI-H460 lung
# RPMI-8226 leukemia = system: RPMI-8226 leukemia
# DU-145 prostate = system: DU-145 prostate
# RXF 393 renal = system: RXF 393 renal
# SF-268 CNS = system: SF-268 CNS
# NCI-H23 lung = system: NCI-H23 lung
# SW-620 colon = system: SW-620 colon
# SK-MEL-2 melanoma = system: SK-MEL-2 melanoma
# LOX IMVI melanoma = system: LOX IMVI melanoma
# SK-MEL-28 melanoma = system: SK-MEL-28 melanoma
# NCI-H226 lung = system: NCI-H226 lung
# CCRF-CEM leukemia = system: CCRF-CEM leukemia
# HCT-116 colon = system: HCT-116 colon
# HL-60(TB) leukemia = system: HL-60(TB) leukemia
# HOP-92 NSCLC = system: HOP-92 NSCLC
# OVCAR-4 ovarian = system: OVCAR-4 ovarian
# A498 renal = system: A498 renal
# T-47D breast = system: T-47D breast
# HT29 colon = system: HT29 colon
# UACC-257 melanoma = system: UACC-257 melanoma
# MDA-MB-231 breast = system: MDA-MB-231 breast
# SNB-19 CNS = system: SNB-19 CNS
smiles,measurement,setting,value
O=[N+]([O-])c1ccc2nc(Cl)n[n+]([O-])c2c1,TGI,IGROV1 ovarian,25.6 µM
same,TGI,KM12 colon,51.8 µM
same,TGI,OVCAR-3 ovarian,21.9 µM
same,TGI,HCT-15 colon,29.7 µM
same,TGI,MCF7 breast,20 µM
same,TGI,BT-549 breast,29.7 µM
same,TGI,K-562 leukemia,2740 nM
same,TGI,OVCAR-5 ovarian,31.3 µM
same,TGI,EKVX NSCLC,39 µM
same,TGI,A549 NSCLC,42.6 µM
same,TGI,COLO 205 colon,25.2 µM
same,TGI,SF-539 CNS,25.3 µM
same,TGI,M14 melanoma,27.5 µM
same,TGI,SF-295 CNS,47.9 µM
same,TGI,MALME-3M melanoma,29.5 µM
same,TGI,OVCAR-8 ovarian,30.7 µM
same,TGI,HCC-2998 colon,30.3 µM
same,TGI,ACHN renal,27.2 µM
same,TGI,UO-31 renal,30.7 µM
same,TGI,CAKI-1 renal,30.1 µM
same,TGI,TK-10 renal,30.8 µM
same,TGI,MDA-N,24.9 µM
same,TGI,SK-MEL-5 melanoma,20.7 µM
same,TGI,HS 578T breast,> 100 µM
same,TGI,SR leukemia,4.93 µM
same,TGI,MOLT-4 leukemia,3.34 µM
same,TGI,UACC-62 melanoma,27.9 µM
same,TGI,HOP-62 NSCLC,30.9 µM
same,TGI,PC-3 prostate,28.4 µM
same,TGI,U251 CNS,31.3 µM
same,TGI,SNB-75 CNS,28.2 µM
same,TGI,MDA-MB-435,26.9 µM
same,TGI,NCI-H522 lung,25.8 µM
same,TGI,SK-OV-3 ovarian,31.4 µM
same,TGI,SN12C renal,37.4 µM
same,TGI,786-0 renal,22.8 µM
same,TGI,NCI/ADR-RES ovarian,60.1 µM
same,TGI,NCI-H460 lung,43.3 µM
same,TGI,RPMI-8226 leukemia,9.1 µM
same,TGI,DU-145 prostate,31.7 µM
same,TGI,RXF 393 renal,28.7 µM
same,TGI,SF-268 CNS,30.7 µM
same,TGI,NCI-H23 lung,36.6 µM
same,TGI,SW-620 colon,35.5 µM
same,TGI,SK-MEL-2 melanoma,29.2 µM
same,TGI,LOX IMVI melanoma,5.23 µM
same,TGI,SK-MEL-28 melanoma,34 µM
same,TGI,NCI-H226 lung,42.2 µM
same,TGI,CCRF-CEM leukemia,2800 nM
same,TGI,HCT-116 colon,25.8 µM
same,TGI,HL-60(TB) leukemia,1360 nM
same,TGI,HOP-92 NSCLC,19.6 µM
same,TGI,OVCAR-4 ovarian,26.8 µM
same,TGI,A498 renal,21.2 µM
same,TGI,T-47D breast,47.3 µM
same,TGI,HT29 colon,49.1 µM
same,TGI,UACC-257 melanoma,29.3 µM
same,TGI,MDA-MB-231 breast,28.3 µM
same,TGI,SNB-19 CNS,> 61.5 µM
